From patent US7153869B2, “Substituted amino acids as erythropoietin mimetics” (priority 1998, dated 2006)
Like-named read-outs stand apart in the source and are kept apart here.

Molecular target: T1, EBP-Ig (N-terminal 225 amino acids of the human EPO receptor joined to an Ig heavy chain) (Homo sapiens, UniProt P19235)
T1 construct: Ig heavy chain (fusion partner); made in house; host or cells: NSO cells (secreted into conditioned media)
T1 sequence (P19235 25-250 limits assumed): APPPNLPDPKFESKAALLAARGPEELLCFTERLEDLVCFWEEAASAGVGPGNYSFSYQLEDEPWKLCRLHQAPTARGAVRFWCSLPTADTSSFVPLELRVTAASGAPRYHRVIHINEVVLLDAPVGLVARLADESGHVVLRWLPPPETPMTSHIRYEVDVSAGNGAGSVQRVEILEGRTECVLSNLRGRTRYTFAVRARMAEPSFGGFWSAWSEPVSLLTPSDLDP
Experiment: Inhibition of [125I]EPO binding to immobilized EBP-Ig (EPO binding protein-Ig), scintillation Flash plate competition assay
Details: for IC30 μM (Inhibition of EPO binding to EBP-Ig): 0–500 μM test compound; for % inh @ 50 μM (Inhibition of EPO binding to EBP-Ig): 50 μM test compound, average % inhibition

[1] = read-out: IC50, μM (Inhibition of EPO binding to EBP-Ig), 0.5 nM [125I]EPO, concentration reducing corrected total binding to 50%

COC(=O)C(CCC(=O)OC(C)(C)C)N(C/C=C/c1cccc(Oc2ccc(Cl)c(Cl)c2)c1)C/C=C/c1cccc(Oc2ccc(Cl)c(Cl)c2)c1 (stereo not drawn) [compound 99]
EPO/EBP-Ig % inh @ 50 μM (Table 6, 50 μM): 13%

O=C(O)CCC(=O)NCCCCC(C(=O)NCCCCCCCCCCCCNC(=O)C(CCCCNC(=O)CCC(=O)O)N(Cc1ccc(OCc2ccccc2)cc1)Cc1ccc(OCc2ccccc2)cc1)N(Cc1ccc(OCc2ccccc2)cc1)Cc1ccc(OCc2ccccc2)cc1 (stereo not drawn) [compound 270]
IC30 μM (Inhibition of EPO binding to EBP-Ig) (0.5 nM [125I]EPO): 7 µM
EPO/EBP-Ig % inh @ 50 μM (50 μM compound, Table 13): 56%
% inh @ 50 μM (Inhibition of EPO binding to EBP-Ig) (0.5 nM [125I]EPO): 56%
IC50 [1]: 100 µM

CCCNC(=O)C(CCCCN)N(C/C=C/c1ccccc1)C/C=C/c1ccccc1 (stereo not drawn) [compound 212]
EPO/EBP-Ig % inh @ 50 μM (50 μM compound, Table 10): −10%

CC(C)(C)OC(=O)CC(C(=O)NCCCOCCOCCOCCCNC(=O)C(CC(=O)OC(C)(C)C)N(C/C=C/c1cccc(Oc2ccc(C(C)(C)C)cc2)c1)C/C=C/c1cccc(Oc2ccc(C(C)(C)C)cc2)c1)N(C/C=C/c1cccc(Oc2ccc(C(C)(C)C)cc2)c1)C/C=C/c1cccc(Oc2ccc(C(C)(C)C)cc2)c1 (stereo not drawn) [compound 253]
EPO/EBP-Ig % inh @ 50 μM (50 μM compound, Table 12): −5%

CCCCC(=O)Nc1cccc(CN(Cc2ccc(OCc3ccccc3)cc2)C(CCCCN)C(=O)OC)c1 (stereo not drawn) [compound 116]
% inh @ 50 μM (Inhibition of EPO binding to EBP-Ig) (0.5 nM [125I]EPO): 32%
EPO/EBP-Ig % inh @ 50 μM (Table 7, 50 μM): 32%

O=C(O)CC(C(=O)O)N(CC=Cc1cccs1)CC=Cc1cccs1 (stereo not drawn) [compound 53]
EPO/EBP-Ig % inh @ 50 μM (Table 3, 50 μM): 14%

O=C(O)C(F)(F)F.O=C(O)[C@H](Cc1ccc(O)cc1)NC/C=C/c1ccc(C(F)(F)F)cc1 [compound 362]
EPO/EBP-Ig % inh @ 50 μM (50 μM compound): 0%

CC(C)C[C@H](NC/C=C/c1ccc(C(F)(F)F)cc1)C(=O)O.O=C(O)C(F)(F)F [compound 369]
EPO/EBP-Ig % inh @ 50 μM (50 μM compound): 12%

NCCCCC(C(=O)O)N(Cc1cccc(Oc2ccccc2)c1)C(=O)/C=C/c1ccc(Oc2ccccc2)cc1 (stereo not drawn) [compound 289]
EPO/EBP-Ig % inh @ 50 μM (50 μM compound, Table 15): 20%

COC(=O)[C@H](CCCCN)NC/C=C/c1ccc(C(=O)O)cc1 [compound 314]
EPO/EBP-Ig % inh @ 50 μM (50 μM compound, Table 18A): 12%

O=C(O)CCC(=O)NCCCCC(C(=O)NCCCOCCOCCOCCCNC(=O)C(CCCCNC(=O)CCC(=O)O)N(Cc1ccc(OCc2ccccc2)cc1)Cc1ccc(OCc2ccccc2)cc1)N(Cc1ccc(OCc2ccccc2)cc1)Cc1ccc(OCc2ccccc2)cc1 (stereo not drawn) [compound 271]
IC30 μM (Inhibition of EPO binding to EBP-Ig) (0.5 nM [125I]EPO): 2 µM
EPO/EBP-Ig % inh @ 50 μM (50 μM compound, Table 13): 77%
% inh @ 50 μM (Inhibition of EPO binding to EBP-Ig) (0.5 nM [125I]EPO): 77%
IC50 [1]: 7 µM

COc1ccc(CCNC(=O)C(CCCCNC(=O)OC(C)(C)C)N(C/C=C/c2cccc(Oc3ccccc3)c2)C/C=C/c2cccc(Oc3ccccc3)c2)cc1 (stereo not drawn) [compound 225]
EPO/EBP-Ig % inh @ 50 μM (50 μM compound, Table 10): 10%

CC(C)(C)OC(=O)CC(C(=O)NCCCOCCOCCOCCCNC(=O)C(CC(=O)OC(C)(C)C)N(Cc1ccc(OCc2ccccc2)cc1)Cc1ccc(OCc2ccccc2)cc1)N(Cc1ccc(OCc2ccccc2)cc1)Cc1ccc(OCc2ccccc2)cc1 (stereo not drawn) [compound 242]
EPO/EBP-Ig % inh @ 50 μM (Table 11, 50 μM): 1%

CC(C)(C)OC(=O)CC(C(=O)NCCCOCCCCOCCCNC(=O)C(CC(=O)OC(C)(C)C)N(Cc1ccc(OCc2ccccc2)cc1)Cc1ccc(OCc2ccccc2)cc1)N(Cc1ccc(OCc2ccccc2)cc1)Cc1ccc(OCc2ccccc2)cc1 (stereo not drawn) [compound 241]
EPO/EBP-Ig % inh @ 50 μM (Table 11, 50 μM): 2%

COC(=O)[C@H](CCCCNC(=O)OC(C)(C)C)NC/C=C/c1cccc(Oc2ccc(C(C)(C)C)cc2)c1 [compound 317]
EPO/EBP-Ig % inh @ 50 μM (50 μM compound, Table 18A): 13%

O=C(O)[C@H](CO)N(C/C=C/c1cccc(Oc2ccccc2)c1)C/C=C/c1cccc(Oc2ccccc2)c1 [cpd 300, N,N-Bis(3-phenoxycinnamyl)Ser-OH]
IC50: 145 µM
IC30 μM (Inhibition of EPO binding to EBP-Ig) (0.5 nM [125I]EPO): 35 µM
inhibition at 50 µM (read-out: % inh @ 50 μM (Inhibition of EPO binding to EBP-Ig)): 57%
inhibition at 50 µM (read-out: EPO/EBP-Ig % inh @ 50 μM, 50 μM compound, Table 16A): 57%

COc1ccc(C(=O)Nc2ccc(/C=C/CN(Cc3ccc(OCc4ccccc4)cc3)C(CCC(=O)O)C(=O)O)cc2)cc1 (stereo not drawn) [compound 82]
% inh @ 50 μM (Inhibition of EPO binding to EBP-Ig) (0.5 nM [125I]EPO): 32%
EPO/EBP-Ig % inh @ 50 μM (Table 5, 50 μM): 32%

O=C(O)CCCC(=O)NCCCCC(C(=O)NCCCCCCCCCCCCNC(=O)C(CCCCNC(=O)CCCC(=O)O)N(Cc1ccc(OCc2ccccc2)cc1)Cc1ccc(OCc2ccccc2)cc1)N(Cc1ccc(OCc2ccccc2)cc1)Cc1ccc(OCc2ccccc2)cc1 (stereo not drawn) [compound 269]
IC30 μM (Inhibition of EPO binding to EBP-Ig) (0.5 nM [125I]EPO): 8 µM
IC50 [1]: 85 µM
